Results taken from patent US10626106B2, “Substituted pyrrolidine amides I” (Gruenenthal GmbH, priority 2017, dated 2020).
Read-outs that look alike come from different tables or passages of the source.

Target: T1, Human Glucocorticoid Receptor (hGR) (Homo sapiens, UniProt P04150)
T1 construct: the resultant supernatant (=cytosol of IM9 cells) was centrifuged at 103,000 g for 60 minutes; host or cells: IM9 human lymphoblast cell line (cytosol fraction)
T1 sequence (P04150 1-777): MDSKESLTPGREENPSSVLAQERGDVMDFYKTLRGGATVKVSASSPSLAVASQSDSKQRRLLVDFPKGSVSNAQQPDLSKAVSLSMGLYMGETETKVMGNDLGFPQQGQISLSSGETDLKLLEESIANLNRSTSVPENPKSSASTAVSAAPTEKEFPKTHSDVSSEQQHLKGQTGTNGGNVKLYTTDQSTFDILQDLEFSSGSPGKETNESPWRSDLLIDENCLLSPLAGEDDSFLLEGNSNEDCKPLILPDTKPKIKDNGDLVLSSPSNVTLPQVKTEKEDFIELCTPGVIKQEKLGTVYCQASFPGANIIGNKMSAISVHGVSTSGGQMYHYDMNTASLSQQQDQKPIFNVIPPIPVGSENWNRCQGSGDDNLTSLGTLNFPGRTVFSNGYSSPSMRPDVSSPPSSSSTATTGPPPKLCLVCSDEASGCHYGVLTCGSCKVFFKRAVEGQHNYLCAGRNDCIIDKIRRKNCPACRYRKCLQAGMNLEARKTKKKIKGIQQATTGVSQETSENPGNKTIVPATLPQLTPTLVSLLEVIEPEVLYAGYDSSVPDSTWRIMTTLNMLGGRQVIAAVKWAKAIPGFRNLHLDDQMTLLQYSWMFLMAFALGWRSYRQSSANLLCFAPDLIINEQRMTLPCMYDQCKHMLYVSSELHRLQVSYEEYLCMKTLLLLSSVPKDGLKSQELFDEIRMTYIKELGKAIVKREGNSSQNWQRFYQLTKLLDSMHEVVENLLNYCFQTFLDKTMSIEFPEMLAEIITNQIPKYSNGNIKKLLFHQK
Assay: Human Glucocorticoid Receptor (hGR) Ligand-Binding Assay (competitive 3H-dexamethasone binding, IM9 cytosol)
Conditions: read-out: % inhibition hGR at 1 μM
Description: Human Glucocorticoid Receptor (hGR) Ligand-Binding Assay
Potential selective glucocorticoid receptor modulators of this intervention can be tested for their binding affinity at the glucocorticoid receptor using the binding assay described below.
Preferably, the glucocortitcoid receptor extracted from cytosol of IM9 cells is used for competitive radioligand binding assays to calculate the IC50 values and binding affinity (Ki value) of the compounds according to the present invention. Preferably, a fixed concentration of the radioligand 3H-dexamethasone and a range of concentrations of compounds according to the present invention (as unlabeled competitors of dexamethasone) are mixed with the extracted glucocorticoid receptor in order to measure the potency/affinity with which they compete for the binding of the radioligand. Preferably, by using competition curves the IC50 which is the concentration of competing ligand that displaces 50% of the specific binding of the radioligand is determined. Finally this IC50 value is converted to a Ki value.
The human lymphoblast cell line IM9 (ATCC, Bethesda, Md.) were cultivated in RPMI 1640 media containing 10% fetal bovine serum, penicillin (100 U/ml), streptomycin (100 μg/ml), and 2 mM L-glutamine at […] and 7% CO2 in a humidified incubator. Cells were centrifuged for 10 minutes at 1500 g and were washed in PBS and repelleted. Cell were then resuspended in homogenization buffer consisting of: 10 mM TES, 10 mM sodium molybdate, 1 mM EDTA, pH 7.4, 20 mM 2-mercaptoethanol, and 10% glycerol. Disruption of the cells was performed by nitrogen cavitation using 2×15 minutes at 600 to 750 psi nitrogen in a N2 cavitator at 0° C. The cell preparation was then centrifuged at 27,000 g for 15 minutes, and the resultant supernatant (=cytosol of IM9 cells) was centrifuged at 103,000 g for 60 minutes at 4° C. The amount of protein in the supernatant fraction was determined using a BCA assay kit and aliquots were snap frozen in a dry ice-acetone bath and stored at −70° C. Competitive binding assays were done in duplicate in homogenization buffer with a total volume of 200 μl. To this end, 1 mg of IM9 cytosol, 0.05 μCi (1.5 nM) of 3H-dexamethasone […] and compounds according to the present invention (=unlabeled competitors of dexamethasone; range of concentrations) were mixed. The reaction was stopped after incubation at 0° C. for 16 to 18 hours by the addition of 100 μl of a charcoal-dextran mixture (2% activated charcoal, 0.5% dextran in 10 mM Tris, 1 mM EDTA, pH 7.4). Another incubation step at 0° C. for 10 minutes followed before the samples were centrifuged for 5 minutes at 8200 g. 100 μl of the supernatant) was finally assayed for radioactivity by liquid scintillationspectrometry, and the IC50 values were determined graphically and were converted to Ki values.

[1] = compound at 1 μM, competition with 3H-dexamethasone, cytosol of IM9 cells

inhibition at 1 µM [1] [%] | Structure (SMILES) | inhibition at 1 µM [%]
60 to 85 | Cn1cc(-n2ncc3cc(N4C(=O)C[C@H](NC(=O)C5CC5)[C@H]4c4ccccc4F)ccc32)ccc1=O [Example 39, N-((2R,3S)-2-(2-fluorophenyl)-1-(1-(1-methyl-6-oxo-1,6-dihydropyridin-3-yl)-1H-indazol-5-yl)-5-oxopyrrolidin-3-yl)cyclopropanecarboxamide] | –
> 85 | Cn1cc(-n2ncc3cc(N4C(=O)C[C@H](NC(=O)C(C)(F)F)C4c4ccc(F)cc4F)ccc32)ccc1=O (stereo in doubt) [Example 2, trans-2,2-difluoro-N-(5-oxo-2-(2,4-difluorophenyl)-1-(1-(1-methyl-6-oxo-1,6-dihydropyridin-3-yl)-1H-indazol-5-yl)pyrrolidin-3-yl)propanamide] | –

More lines, now with the values behind:

Structure (SMILES) | inhibition at 1 µM [1] [%] | inhibition at 1 µM [%]
CC(F)(F)C(=O)N[C@H]1CC(=O)N(c2ccc3c(cnn3-c3cccnc3)c2)C1c1ccccc1 (stereo in doubt) [Example 7, trans-2,2-difluoro-N-(5-oxo-2-phenyl-1-(1-(pyridin-3-yl)-1H-indazol-5-yl)pyrrolidin-3-yl)propanamide] | – | > 85
Cn1ccc(C(=O)N[C@H]2CC(=O)N(c3ccc4c(cnn4-c4ccc(=O)n(C)c4)c3)[C@@H]2c2ccccc2)n1 [Example 45, 1-methyl-N-[(2R,3S)-1-[1-(1-methyl-6-oxo-3-pyridyl)indazol-5-yl]-5-oxo-2-phenyl-pyrrolidin-3-yl]pyrazole-3-carboxamide] | 60 to 85 | –
Cn1cc(-n2ncc3cc(N4C(=O)C[C@H](NC(=O)C(C)(F)F)[C@H]4c4ccc(F)cc4)ccc32)ccc1=O [Example 17, 2,2-difluoro-N-((2R,3S)-2-(4-fluorophenyl)-1-(1-(1-methyl-6-oxo-1,6-dihydropyridin-3-yl)-1H-indazol-5-yl)-5-oxopyrrolidin-3-yl)propanamide] | – | > 85
